Results reported in patent US20050220861A1, “Colonic release compostion” (priority 2002, published 2005).
Where two headings read alike, the source gives them in different places.

Assays:
[1] = human, in vivo, po
Description: Four phase I studies have been completed. In the first of these, an ethyl cellulose to amylose ratio of 5:1 was used with a 10% weight gain. The second and third studies, investigated the effect of a thicker coat (20% weight gain) at a 4:1 ethylcellulose to amylose ratio. All other features of the comparison formulation were the same.
(§1) Capsules containing coated pellets of prednisolone sodium metasulphobenzoate, equivalent to 60 mg prednisolone, were administered to seven healthy, fasted volunteers. Progress of the dose through the gastrointestinal tract was followed over 24 hours by gamma-scintigraphy after the co-administration of ethylcellulose coated ^111indium labelled non-pareils. Plasma levels of prednisolone were determined at various time points up to 48 hours after administration. Excreted drug pellets were harvested over five days and residual drug levels determined.
(§2) The trial comprised a combined gamma scintigraphic and pharmacokinetic study with excreted pellet analysis to the same design as the first Phase I study (above) following administration of the prednisolone sodium metasulphobenzoate ester at a dose of 94.2 mg, equivalent to 60 mg of prednisolone. In this second study, the thickness of the coating of the pellets was increased and the proportion of amylose was increased in the coat.
(§3) The trial comprised a combined gamma scintigraphic and pharmacokinetic study with excreted pellet analysis to the same design as the first Phase I study (above) following administration of prednisolone sodium metasulphobenzoate ester at a dose of 94.2 mg, equivalent to 60 mg prednisolone. In this third study, administering the coated prednisolone pellets to volunteers in the fed and fasted state was examined.
The pellets were produced as described in Example 2.
This trial used a higher dose of prednisolone sodium metasulphobenzoate, equivalent to 100 mg of prednisolone.

[2] = for drug content of the formulation released from the pellets / prednisolone sodium metasulphobenzoate retained in the excreted pellets, mean: 3rd Phase I
Description: as §1, §2, §3

[3] = design: Cmax (prednisolone) / AUC (prednisolone): unit not given beside the values; conditions: cited from earlier work
[4] = design: unit not given beside the values; conditions: in vivo, po, 40 mg; cited from earlier work
[5] = McIntyre et al 1985, 20 mg, rectal

In the case of `C[C@]12C=CC(=O)C=C1CC[C@@H]1[C@@H]2[C@@H](O)C[C@@]2(C)[C@H]1CC[C@]2(O)C(=O)COC(=O)c1cccc(S(=O)(=O)[O-])c1.[Na+]` [Prednisolone metasulphobenzoate, prednisolone sodium metasulphobenzoate], the “AUC (prednisolone)” value ([1]; 60 mg) is reported as 1441 ± 541, the “Cmax (prednisolone)” value ([1]; 60 mg) is reported as 168 ± 56 and the AUC ([1]; 100 mg) is reported as 152 ng·mL·h. For the same compound, the Cmax ([1]; 100 mg) was 18.9 ng/mL, the “amount of prednisolone recovered from pellets harvested from the faeces” value ([2]; 1st Phase I, 60 mg oral, average of all subjects) was 2.5 ± 1.12 mg and the “prednisolone recovered from excreted pellets, % of the administered dose” value ([2]; 1st Phase I, all cases) was “less than 5%”. The “drug excreted in the pellets, % of the administered dose” value ([2]; 2nd Phase I) was “less than 2%”, the “arrival of the drug pellets at the ileo-caecal junction” value ([2]; 2nd Phase I, amylose:ethylcellulose 1:4, 20% weight gain) was 5.9 ± 2.0 h and the “mean quantity of drug excreted in the pellets, determined as prednisolone sodium metasulphobenzoate” value ([2]; 2nd Phase I, dose 94.2 mg ester) was 1.7 mg. The “drug content of the formulation released from the pellets” value ([2]; fasted) was “over 90%”, the “prednisolone sodium metasulphobenzoate retained in the excreted pellets, mean” value ([2]; fasted, dose 94.2 mg ester) was 6.1 ± 1.0 mg and the “drug content of the formulation released from the pellets” value ([2]; fed) was “over 90%”. For the same compound, the “prednisolone sodium metasulphobenzoate retained in the excreted pellets, mean” value ([2]; fed, dose 94.2 mg ester) was 3.1 ± 1.2 mg, the AUC ([3]; in vivo, 60 mg) was 632 ± 509 ng·mL·h and the “AUC (prednisolone)” value ([3]; in vivo, 60 mg) was 632 ± 509. The Cmax ([3]; in vivo, 60 mg) was 147 ± 79 ng/mL, the “Cmax (prednisolone)” value ([3]; in vivo, 60 mg) was 147 ± 79 and the “AUC (prednisolone)” value [4] was 2189 ± 475. The “Cmax (prednisolone)” value [4] was 242 ± 58.

In the case of `C[C@]12C=CC(=O)C=C1CC[C@@H]1[C@@H]2[C@@H](O)C[C@@]2(C)[C@H]1CC[C@]2(O)C(=O)COP(=O)(O)O` [Prednisolone-21-phosphate], the “AUC (prednisolone)” value [3, 5] is listed as 599 ± 310 and the “Cmax (prednisolone)” value [3, 5] is listed as 148 ± 75.
